The results in this text go back to patent US20120022121A1, “INDOLES, DERIVATIVES AND ANALOGS THEREOF AND USES THEREFOR” (priority 2007, published 2012).

The subject of data set [1] is LNCaP. Put plainly: Cell viability SRB assay, 96 h. Particulars: Homo sapiens. The data set is classed as cell-based. As for the experimental part: (§1) Cell viability (LNCaP, PC-3 prostate, DU145, PPC-1, and TSU-Pr1 prostate cancer cell lines, HT-29 colon cancer cell line, and MCF-7 breast cancer cell line) was quantitated using the sulforhodamine B (SRB) assay after 96 h coincubation with different concentrations of compound in 96-well plates. Cell viability of leukemia cells (K562 and doxorubicin-resistant K562/Dox) was quantitated by MTT assay after 96 h coincubation with different concentrations of compound in 96-well plates. Drug-induced apoptosis was determined by anti-histone ELISA assay and DNA laddering. Cell cycle progression was assessed by propidium iodide staining and fluorescence-activated cell sorting (FACS) analysis. In vitro tubulin polymerization assay was determined by CytoDYNAMIX ScreenTM3 (CDS-03) kits according to the manufacturer's instructions. Anti-apoptosis protein (Bcl-2 and Bcl-xl) and pro-apoptosis protein (Bax) were examined in LNCaP and PC-3 after 24 h incubation with different concentrations of compound 13 by Western blot assay. In vivo PC-3 xenograft studies were conducted by i.v. dosing of 50 mg/kg, 100 mg/kg and 150 mg/kg for 2 weeks.
(§2) Cells were plated in 96-well plates at a density of 800-5,000 cells/well, depending on the cell line, in their required growth media containing 10% fetal bovine serum. Preliminary studies were performed with each cell line using a variety of cell densities and incubation times to determine appropriate seeding densities. The compound of interest was dissolved in DMSO, diluted in cell culture medium (final DMSO concentration was less than 0.5% v/v), and added to quadruplicate wells at final concentrations ranging from 0 to 100 μM. Control wells to which only drug-free vehicle was added were included as negative controls.
(§3) Cells were incubated for 96 hour at 37° C. in a humidified atmosphere containing 5% carbon dioxide.
(§4) Cells were stained with SRB solution. […] WinNonlin was provided by a Pharsight Academic License to The Ohio State University.

In data set [2] the test system is PC-3. The data set is described as follows: Cell viability SRB assay, 96 h. Particulars: Homo sapiens, PC-3, 96 h. Type of data set: cell-based. As for the experimental part: as §1, §2, §3, §4
In data set [3] the test system is PPC-1. The data set is described as follows: Cell viability SRB assay, 96 h. The data set is classed as cell-based. The conditions noted are these: Homo sapiens, PPC-1, 96 h. As for the experimental part:
as §1, §2, §3, §4

The test system of another data set is DU-145. The data set is described as follows: Cell viability SRB assay, 96 h. Type of data set: cell-based. The conditions noted are these: Homo sapiens, DU-145, 96 h. As for the experimental part:
as §1, §2, §3, §4

The test system of another data set is TSU. The data set is described as follows: Cell viability SRB assay, 96 h. The conditions noted are these: Homo sapiens, TSU (TSU-Pr1). Type of data set: cell-based. As for the experimental part:
as §1, §2, §3, §4

A further data set deals with A375. Put plainly: Cytotoxicity assay (SRB, 48 h). The data set is classed as cell-based, human. The conditions noted are these: Homo sapiens.
The test system of another data set is Du 145. The data set is described as follows: Cytotoxicity assay (SRB, 96 h). The data set is classed as cell-based. Particulars: Homo sapiens; Du 145, 96 h.
Data set [4] deals with PPC-1. Put plainly: Cytotoxicity assay (SRB, 96 h). Type of data set: cell-based. The conditions noted are these: Homo sapiens, PPC-1, 96 h.
The subject of data set [5] is LNCaP. The data set is described as follows: Cytotoxicity assay (SRB, 96 h). Type of data set: cell-based. The conditions noted are these: Homo sapiens.
In another data set the test system is WM164. Put plainly: Cytotoxicity assay (SRB, 48 h). Particulars: Homo sapiens, WM164 melanoma. The data set is classed as cell-based, human.
The subject of data set [6] is PC-3. Put plainly: Cytotoxicity assay (SRB, 96 h). Type of data set: cell-based. The conditions noted are these: Homo sapiens, PC-3, 96 h.

In turn, `O=S(=O)(c1ccccc1)n1c(Cc2cccc(-c3cc4ccccc4n3S(=O)(=O)c3ccccc3)c2)cc2ccccc21` [Compound 9, (1-Benzenesulfonyl-1H-indol-2-yl)-[3-(1-benzenesulfonyl-1H-indol-2-yl)phenyl]methane] came in with a melting point of 76 to 78 °C. Besides, the IC50 with LNCaP [1] is above 100 µM. The compound also registered an IC50 with PC-3 [2] above 100 µM. Further, in the data set with PPC-1 [3], the IC50 is above 100 µM. For the same compound, in the data set with DU-145, the IC50 was above 100 µM. In the data set on TSU, this compound showed an IC50 above 100 µM.

Take `OC(c1cccc(-c2cc3ccccc3[nH]2)c1)c1cc2ccccc2[nH]1` (stereo not drawn) [Compound 11, (1H-indol-2-yl)-[3-(1H-indol-2-yl)phenyl]methanol]: the melting point lay within 82 to 85 °C. The compound also showed a half-inhibitory concentration (IC50) in the data set with LNCaP [1] of 5.6 µM. Half-maximal inhibition in the data set with PC-3 [2] (IC50) was put at 13.5 µM. This compound displayed an IC50 in the data set on PPC-1 [3] of 3.8 µM. The compound further had an IC50 in the data set on DU-145 of 11.6 µM.

With `COC(=O)c1csc(C(=O)c2c[nH]c3ccccc23)n1` [Compound 59, methyl 2-(1H-indole-3-carbonyl)thiazole-4-carboxylate], the half-inhibitory concentration (IC50) amounted to 58.5 ± 14.3 µM with LNCaP [1] and 90.4 ± 27.5 µM with PC-3 [2].

`COc1cc(-c2cccc(C(O)c3cc4ccccc4n3S(=O)(=O)c3ccccc3)c2)cc(OC)c1OC` (stereo not drawn) [Compound 63, (1-Benzenesulfonyl-1H-indol-2-yl)-(3′,4′,5′-trimethoxy-biphenyl-3-yl)-methanol]: the IC50 came to 4.2 µM in the data set with LNCaP [1], 11.6 µM with PC-3 [2], 21.8 µM in the data set on PPC-1 [3] and 38 µM in the data set with DU-145.

Consider `COc1cc(-c2cccc(C(=O)c3cc4ccccc4n3S(=O)(=O)c3ccccc3)c2)cc(OC)c1OC` [Compound 64, (1-Benzenesulfonyl-1H-indol-2-yl)-(3′,4′,5′-trimethoxy-biphenyl-3-yl)-methanone], for which the concentration for half-maximal inhibition (IC50) with LNCaP [1] is 4.9 µM; with PC-3 [2], 29.2 µM; in the data set on PPC-1 [3], 44.7 µM; in the data set with DU-145, 29.2 µM; with TSU it was 58.9 µM.

Regarding `COc1cc(-c2cccc(C(=O)c3cc4ccccc4[nH]3)c2)cc(OC)c1OC` [Compound 65, (1H-Indol-2-yl)-(3′,4′,5′-trimethoxy-biphenyl-3-yl)-methanone], the IC50 in the data set with LNCaP [1] amounted to 3 µM; in the data set with PC-3 [2], 4.6 µM; in the data set with PPC-1 [3], 4.1 µM; in the data set on DU-145, 16.2 µM.

As for `COc1cc(C(O)c2cccc(-c3cc4ccccc4n3S(=O)(=O)c3ccccc3)c2)cc(OC)c1OC` (stereo not drawn) [Compound 66, [3-(1-Benzenesulfonyl-1H-indol-2-yl)-phenyl]-(3,4,5-trimethoxy-phenyl)-methanol], the 50% inhibitory concentration (IC50) in the data set on LNCaP [1] stood at 10.1 µM; in the data set with PC-3 [2] it was 45 µM; in the data set with PPC-1 [3], 35.3 µM; in the data set with DU-145, 61.5 µM.

Regarding `COc1cc(C(O)c2cccc(-c3cc4ccccc4[nH]3)c2)cc(OC)c1OC` (stereo not drawn) [Compound 66A, [3-(1H-Indol-2-yl)-phenyl]-(3,4,5-trimethoxy-phenyl)-methanol], the IC50 in the data set with LNCaP [1] is 3.1 µM; in the data set with PC-3 [2], 5.9 µM; in the data set on PPC-1 [3] it was 1.9 µM; in the data set with DU-145 it was 7.2 µM.

With `COc1cc(C(=O)c2cccc(-c3cc4ccccc4n3S(=O)(=O)c3ccccc3)c2)cc(OC)c1OC` [Compound 67, [3-(1-Benzenesulfonyl-1H-indol-2-yl)-phenyl]-(3,4,5-trimethoxy-phenyl)-methanone], the concentration for half-maximal inhibition (IC50) in the data set with LNCaP [1] was determined as 7.8 µM; in the data set on PC-3 [2], 9.2 µM; with PPC-1 [3], 68.5 µM; in the data set on DU-145 it was 18 µM.

Take `O=C(c1ccccc1)c1cccc(-c2cc3ccccc3[nH]2)c1` [Compound 80A, [3-(1H-Indol-2-yl)-phenyl]-phenyl-methanone]: the IC50 with LNCaP [1] stood at 1.74 µM; with PC-3 [2], 2 µM; in the data set on PPC-1 [3], 1.52 µM; in the data set with DU-145, 2.12 µM.

As for `COc1ccc(C(=O)c2cccc(-c3cc4ccccc4[nH]3)c2)cc1` [Compound 84, [3-(1H-Indol-2-yl)-phenyl]-(4-methoxy-phenyl)-methanone], the IC50 in the data set on LNCaP [1] worked out at 3.7 µM; in the data set on PC-3 [2], 2.6 µM; with PPC-1 [3] it was 0.9 µM; with DU-145 it was 1.4 µM.

Take `COc1cc(C(=O)c2cc3ccc(F)cc3n2S(=O)(=O)c2ccccc2)cc(OC)c1OC` [Compound 106, (6-Fluoro-1-(phenylsulfonyl)-1H-indol-2-yl)(3,4,5-trimethoxyphenyl)methanone]: the melting point is 171 to 173 °C. The IC50 with A375 (A-375, 48 h, A375 melanoma) is above 10 µM. In the data set on Du 145, this compound yielded a 50% inhibitory concentration (IC50) above 10 µM. The IC50 in the data set with PPC-1 [4] is above 10 µM. Further, the IC50 in the data set with LNCaP [5] was above 10 µM. This compound also came in with an IC50 in the data set on WM164 (WM164, 48 h) above 10 µM. The compound also gave an IC50 in the data set with PC-3 [6] above 10 µM.

`COc1ccc2cc(C(=O)c3cc(OC)c(OC)c(OC)c3)n(S(=O)(=O)c3ccccc3)c2c1` [Compound 107, (6-Methoxy-1-(phenylsulfonyl)-1H-indol-2-yl)(3,4,5-trimethoxyphenyl)methanone] displayed a melting point of 156 to 158 °C. In the data set with A375 (A-375, A375 melanoma), this compound gave an IC50 of 8.22 µM. The half-maximal inhibitory concentration (IC50) with Du 145 was above 10 µM. The compound also had an IC50 in the data set on PPC-1 [4] of 1.05 µM. The compound further gave an IC50 with LNCaP [5] above 10 µM. In the data set on WM164, this compound returned a 50% inhibitory concentration (IC50) above 10 µM. Moreover, in the data set with PC-3 [6], half-maximal inhibition (IC50) was put at 2.66 µM.

In turn, `COc1cc(C(=O)c2cc3ccc(C)cc3[nH]2)cc(OC)c1OC` [Compound 116, (6-Methyl-1H-indol-2-yl)(3,4,5-trimethoxyphenyl)methanone] registered a melting point of 179 to 181 °C. The compound also gave an IC50 in the data set on A375 (A-375, 48 h, A375 melanoma) above 10 µM. Besides, the half-inhibitory concentration (IC50) in the data set on Du 145 is above 10 µM. This compound also came in with a half-maximal inhibitory concentration (IC50) in the data set on PPC-1 [4] above 10 µM. Moreover, the IC50 in the data set with LNCaP [5] is above 10 µM. In addition, the 50% inhibitory concentration (IC50) with WM164 (WM164, 48 h) was above 10 µM. Moreover, in the data set on PC-3 [6], the concentration for half-maximal inhibition (IC50) is above 10 µM.

Turning to `COc1cc(C(=O)c2cc3ccc(Cl)cc3n2C)cc(OC)c1OC` [Compound 119, (6-Chloro-1-methyl-1H-indol-2-yl)(3,4,5-trimethoxyphenyl)methanone], the IC50 in the data set on A375 (A-375, A375 melanoma) is 6.65 ± 0.33 µM; with Du 145, above 10 µM; in the data set on PPC-1 [4] it was 4.33 ± 0.72 µM; in the data set with LNCaP [5], 1.04 ± 0.25 µM; in the data set with WM164, 8.08 ± 1.21 µM; in the data set on PC-3 [6], 3.76 ± 0.83 µM.

Consider `O=C(c1ccc(F)cc1)c1cccc(-c2ccc3[nH]ccc3c2)c1` [Compound 125, (4-Fluoro-phenyl)-[3-(1H-indol-5-yl)-phenyl]-methanone], for which the IC50 is 2.78 µM with LNCaP [1], 2.7 µM with PC-3 [2], 0.63 µM in the data set with PPC-1 [3] and 5.73 µM in the data set on DU-145.

With `O=C(c1ccc(F)cc1)c1cccc(-c2cc3ccccc3n2S(=O)(=O)c2ccccc2)c1` [Compound 126, [3-(1-Benzenesulfonyl-1H-indol-2-yl)-phenyl]-(4-fluoro-phenyl)-methanone], the concentration for half-maximal inhibition (IC50) stood at 1.56 µM in the data set with LNCaP [1], 1.5 µM with PC-3 [2], 0.55 µM with PPC-1 [3] and 4.01 µM in the data set with DU-145.

For `OCc1cccc(-c2cc3ccccc3[nH]2)c1` [Compound 130], the IC50 in the data set with LNCaP [1] turned out to be 23.8 ± 3 µM; with PC-3 [2], 65.1 ± 5.3 µM; in the data set with PPC-1 [3] it was 26.6 µM; with DU-145 it was 21.8 µM.

For the compound `c1ccc2[nH]ccc2c1` [indole], the IC50 in the data set on LNCaP [1], in the data set on PC-3 [2], in the data set with PPC-1 [3], in the data set on DU-145 and in the data set on TSU was above 100 µM each time.
